Reference: patent US20250195530A1, “POLQ INHIBITORS” (ASTRAZENECA AB, priority 2022, published 2025)

How the values were obtained:
[1] = tested on: DLD-1 cells; assay: Inhibition of proliferation, DLD-1 BRCA2 wt control (Cell Titre Glo 3D); assay type: cell-based; conditions: Homo sapiens, DLD-1, 168 h, DLD-1 BRCA2 wt cells, 7 days; read-out: POLQ PD Prolif Lumin DLD1 mean pIC50 (converted)
In short: (§1)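 Wild-type DLD-1 serves as the control for non-specific toxicity, and BRCA2-null DLD-1 as the homologous-recombination-deficient line. Both grew with compound from 10 μM down to 0.51 nM, re-dosed after 6 days. Luminescent ATP content (CellTiter-Glo 3D) was read after 7 or 12 days, respectively, to give IC50 values.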

[2] = tested on: DLD-1 BRCA2−/− cells; assay: Homologous recombination synthetic lethal inhibition of proliferation, DLD-1 BRCA2-/- (Cell Titre Glo 3D); assay type: cell-based; conditions: Homo sapiens, DLD-1, 288 h, DLD-1 BRCA2−/− cells, 12 days; read-out: POLQ PD Prolif Lumin BRCA2 −/− mean pIC50 (converted)
In short: as §1

Structure (SMILES): CNC(=O)COc1ccc(-c2nc3c(OC4(C)CC4)ncnc3n2Cc2ccccc2)c(Cl)c1 [Example D21, 2-(4-(9-benzyl-6-(1-methylcyclopropoxy)-9H-purin-8-yl)-3-chlorophenoxy)-N-methylacetamide]
- IC50 [1]: > 10 µM
- IC50 [2]: 0.126 µM

Structure (SMILES): CC(=O)N1CCN(CCCOc2ccc(-c3nc4c(OC5(C)CC5)ncnc4n3Cc3ccccc3)c(Cl)c2)CC1 [Example D22, 1-(4-(3-(4-(9-benzyl-6-(1-methylcyclopropoxy)-9H-purin-8-yl)-3-chlorophenoxy)propyl)piperazin-1-yl)ethan-1-one]
- IC50 [1]: > 10 µM
- IC50 [2]: 0.126 µM

Structure (SMILES): CC1(Oc2ncnc3c2nc(-c2ccc(OCCN)cc2Cl)n3Cc2ccccc2)CC1 [Example D23, 2-(4-(9-benzyl-6-(1-methylcyclopropoxy)-9H-purin-8-yl)-3-chlorophenoxy)ethan-1-amine]
- IC50 [1]: 7.94 µM
- IC50 [2]: 0.794 µM

Structure (SMILES): CC1(Oc2ncnc3c2nc(-c2ccc(OCC(=O)O)cc2Cl)n3Cc2ccccc2)CC1 [Example D24, 2-(4-(9-benzyl-6-(1-methylcyclopropoxy)-9H-purin-8-yl)-3-chlorophenoxy)acetic acid]
- IC50 [1]: > 10 µM
- IC50 [2]: > 10 µM

Structure (SMILES): CC1(Oc2ncnc3c2nc(-c2ccc(OC[C@H]4CCCN4)cc2Cl)n3Cc2ccccc2)CC1 [Example D25, (R)-9-benzyl-8-(2-chloro-4-(pyrrolidin-2-ylmethoxy)phenyl)-6-(1-methylcyclopropoxy)-9H-purine]
- IC50 [1]: 2.51 µM
- IC50 [2]: 0.1 µM

Structure (SMILES): CC1(Oc2ncnc3c2nc(-c2ccc(OCC(N)=O)cc2Cl)n3Cc2ccccc2)CC1 [Example D27, 2-(4-(9-benzyl-6-(1-methylcyclopropoxy)-9H-purin-8-yl)-3-chlorophenoxy)acetamide]
- IC50 [1]: > 10 µM
- IC50 [2]: 0.1 µM

Structure (SMILES): CC1(Oc2ncnc3c2nc(-c2ccc(OCC(=O)NCCO)cc2Cl)n3Cc2ccccc2)CC1 [Example D28, 2-(4-(9-benzyl-6-(1-methylcyclopropoxy)-9H-purin-8-yl)-3-chlorophenoxy)-N-(2-hydroxyethyl)acetamide]
- IC50 [1]: > 10 µM
- IC50 [2]: 0.0794 µM

Structure (SMILES): CC1(Oc2ncnc3c2nc(-c2ccc(OCCNCC(=O)O)cc2Cl)n3Cc2ccccc2)CC1 [Example D29, (2-(4-(9-benzyl-6-(1-methylcyclopropoxy)-9H-purin-8-yl)-3-chlorophenoxy)ethyl)glycine]
- IC50 [1]: > 10 µM
- IC50 [2]: 5.01 µM

Structure (SMILES): CN(CCOc1ccc(-c2nc3c(OC4(C)CC4)ncnc3n2Cc2ccccc2)c(Cl)c1)CC(=O)O [Example D30, N-(2-(4-(9-benzyl-6-(1-methylcyclopropoxy)-9H-purin-8-yl)-3-chlorophenoxy)ethyl)-N-methylglycine]
- IC50 [1]: > 10 µM
- IC50 [2]: 1.26 µM

Structure (SMILES): CC1(Oc2ncnc3c2nc(-c2ccc(O[C@H]4CNC[C@H]4F)cc2Cl)n3Cc2ccccc2)CC1 [Example D31, 9-benzyl-8-(2-chloro-4-(((3S,4R)-4-fluoropyrrolidin-3-yl)oxy)phenyl)-6-(1-methylcyclopropoxy)-9H-purine]
- IC50 [1]: 7.94 µM
- IC50 [2]: 0.2 µM

Structure (SMILES): CC1(Oc2ncnc3c2nc(-c2ccc(O[C@@H]4CCCNC4)cc2Cl)n3Cc2ccccc2)CC1 [Example D32, (R)-9-benzyl-8-(2-chloro-4-(piperidin-3-yloxy)phenyl)-6-(1-methylcyclopropoxy)-9H-purine]
- IC50 [1]: 6.31 µM
- IC50 [2]: 0.126 µM

Structure (SMILES): CC1(Oc2ncnc3c2nc(-c2ccc(OC4CCNCC4)cc2Cl)n3Cc2ccccc2)CC1 [Example D33, 9-benzyl-8-(2-chloro-4-(piperidin-4-yloxy)phenyl)-6-(1-methylcyclopropoxy)-9H-purine]
- IC50 [1]: 3.16 µM
- IC50 [2]: 0.0631 µM

Structure (SMILES): CC1(Oc2ncnc3c2nc(-c2ccc(OC4CC5(CNC5)C4)cc2Cl)n3Cc2ccccc2)CC1 [Example D34, 8-(4-((2-azaspiro[3.3]heptan-6-yl)oxy)-2-chlorophenyl)-9-benzyl-6-(1-methylcyclopropoxy)-9H-purine]
- IC50 [1]: 3.98 µM
- IC50 [2]: 0.2 µM

Structure (SMILES): CC1(Oc2ncnc3c2nc(-c2ccc(OC4CNC4)cc2Cl)n3Cc2ccccc2)CC1 [Example D35, 8-(4-(azetidin-3-yloxy)-2-chlorophenyl)-9-benzyl-6-(1-methylcyclopropoxy)-9H-purine]
- IC50 [1]: 3.98 µM
- IC50 [2]: 0.501 µM

Structure (SMILES): CN1CCN(CCOc2ccc(-c3nc4c(OC5(C)CC5)ncnc4n3Cc3ccccc3Cl)c(Cl)c2)CC1 [Example E1, 8-(2-chloro-4-(2-(4-methylpiperazin-1-yl)ethoxy)phenyl)-9-(2-chlorobenzyl)-6-(1-methylcyclopropoxy)-9H-purine]
- IC50 [1]: 2.51 µM
- IC50 [2]: 0.0316 µM

Structure (SMILES): CN1CCN(CCOc2ccc(-c3nc4c(OC5(C)CC5)ncnc4n3Cc3cccc(Cl)c3)c(Cl)c2)CC1 [Example E2, 8-(2-chloro-4-(2-(4-methylpiperazin-1-yl)ethoxy)phenyl)-9-(3-chlorobenzyl)-6-(1-methylcyclopropoxy)-9H-purine]
- IC50 [1]: 3.16 µM
- IC50 [2]: 0.0251 µM

Structure (SMILES): CN1CCN(CCOc2ccc(-c3nc4c(OC5(C)CC5)ncnc4n3Cc3cccc(F)c3F)c(Cl)c2)CC1 [Example E3, 8-(2-chloro-4-(2-(4-methylpiperazin-1-yl)ethoxy)phenyl)-9-(2,3-difluorobenzyl)-6-(1-methylcyclopropoxy)-9H-purine]
- IC50 [1]: 3.98 µM
- IC50 [2]: 0.0501 µM

Structure (SMILES): CN1CCN(CCOc2ccc(-c3nc4c(OC5(C)CC5)ncnc4n3CCc3ccccc3)c(Cl)c2)CC1 [Example E4, 8-(2-chloro-4-(2-(4-methylpiperazin-1-yl)ethoxy)phenyl)-6-(1-methylcyclopropoxy)-9-phenethyl-9H-purine]
- IC50 [1]: 7.94 µM
- IC50 [2]: 0.2 µM

Structure (SMILES): CN1CCN(CCOc2ccc(-c3nc4c(OC5(C)CC5)ncnc4n3Cc3ccccn3)c(Cl)c2)CC1 [Example E5, 8-(2-chloro-4-(2-(4-methylpiperazin-1-yl)ethoxy)phenyl)-6-(1-methylcyclopropoxy)-9-(pyridin-2-ylmethyl)-9H-purine]
- IC50 [1]: 7.94 µM
- IC50 [2]: 0.501 µM

Structure (SMILES): CN1CCN(CCOc2ccc(-c3nc4c(OC5(C)CC5)ncnc4n3Cc3ncccn3)c(Cl)c2)CC1 [Example E6, 8-(2-chloro-4-(2-(4-methylpiperazin-1-yl)ethoxy)phenyl)-6-(1-methylcyclopropoxy)-9-(pyrimidin-2-ylmethyl)-9H-purine]
- IC50 [1]: > 10 µM
- IC50 [2]: 1.58 µM

Structure (SMILES): CC1(Oc2ncnc3c2nc(-c2ccc(OCCN4CCNCC4)cc2Cl)n3Cc2ccccn2)CC1 [Example E7, 8-(2-chloro-4-(2-(piperazin-1-yl)ethoxy)phenyl)-6-(1-methylcyclopropoxy)-9-(pyridin-2-ylmethyl)-9H-purine]
- IC50 [1]: > 10 µM
- IC50 [2]: 1.26 µM

Structure (SMILES): Cc1cc(N2CCC(N)CC2)ncc1-c1nc2c(OC3(C)CC3)ncnc2n1Cc1ccccc1 [Example F1, 1-(5-(9-benzyl-6-(1-methylcyclopropoxy)-9H-purin-8-yl)-4-methylpyridin-2-yl)piperidin-4-amine]
- IC50 [1]: > 10 µM
- IC50 [2]: 0.398 µM

Structure (SMILES): Cc1cc(N2CC(N(C)C)C2)ncc1-c1nc2c(OC3(C)CC3)ncnc2n1Cc1ccccc1 [Example F2, 1-(5-(9-benzyl-6-(1-methylcyclopropoxy)-9H-purin-8-yl)-4-methylpyridin-2-yl)-N,N-dimethylazetidin-3-amine]
- IC50 [1]: > 10 µM
- IC50 [2]: 0.316 µM

Structure (SMILES): Cc1cc(N2CCC(N(C)C)CC2)ncc1-c1nc2c(OC3(C)CC3)ncnc2n1Cc1ccccc1 [Example F3, 1-(5-(9-benzyl-6-(1-methylcyclopropoxy)-9H-purin-8-yl)-4-methylpyridin-2-yl)-N,N-dimethylpiperidin-4-amine]
- IC50 [1]: > 10 µM
- IC50 [2]: 0.251 µM

Structure (SMILES): Cc1cc(OCCCN2CCNCC2)ncc1-c1nc2c(OC3(C)CC3)ncnc2n1Cc1ccccc1 [Example G1, 9-benzyl-8-(4-methyl-6-(3-(piperazin-1-yl)propoxy)pyridin-3-yl)-6-(1-methylcyclopropoxy)-9H-purine]
- IC50 [1]: 6.31 µM
- IC50 [2]: 0.501 µM

Structure (SMILES): Cc1cc(OCCCN(C)C)ncc1-c1nc2c(OC3(C)CC3)ncnc2n1Cc1ccccc1 [Example G2, 3-((5-(9-benzyl-6-(1-methylcyclopropoxy)-9H-purin-8-yl)-4-methylpyridin-2-yl)oxy)-N,N-dimethylpropan-1-amine]
- IC50 [1]: > 10 µM
- IC50 [2]: 1 µM

Structure (SMILES): CC(=O)N1CCN(CCCOc2cc(C)c(-c3nc4c(OC5(C)CC5)ncnc4n3Cc3ccccc3)cn2)CC1 [Example G3, 1-(4-(3-((5-(9-benzyl-6-(1-methylcyclopropoxy)-9H-purin-8-yl)-4-methylpyridin-2-yl)oxy)propyl)piperazin-1-yl)ethan-1-one]
- IC50 [1]: 6.31 µM
- IC50 [2]: 1 µM

Structure (SMILES): CC(=O)N1CCN(CCOc2cc(C)c(-c3nc4c(OC5(C)CC5)ncnc4n3Cc3ccccc3)cn2)CC1 [Example G4, 1-(4-(2-((5-(9-benzyl-6-(1-methylcyclopropoxy)-9H-purin-8-yl)-4-methylpyridin-2-yl)oxy)ethyl)piperazin-1-yl)ethan-1-one]
- IC50 [1]: > 10 µM
- IC50 [2]: 1.26 µM

Structure (SMILES): Cc1cc(OCCCN2CCCC2)ncc1-c1nc2c(OC3(C)CC3)ncnc2n1Cc1ccccc1 [Example G5, 9-benzyl-8-(4-methyl-6-(3-(pyrrolidin-1-yl)propoxy)pyridin-3-yl)-6-(1-methylcyclopropoxy)-9H-purine]
- IC50 [1]: 7.94 µM
- IC50 [2]: 0.398 µM

Structure (SMILES): Cc1cc(OCCN2CCNCC2)ncc1-c1nc2c(OC3(C)CC3)ncnc2n1Cc1ccccc1 [Example G6, 9-benzyl-8-(4-methyl-6-(2-(piperazin-1-yl)ethoxy)pyridin-3-yl)-6-(1-methylcyclopropoxy)-9H-purine]
- IC50 [1]: > 10 µM
- IC50 [2]: 0.501 µM

Structure (SMILES): Cc1cc(OCCCN2CCOCC2)ncc1-c1nc2c(OC3(C)CC3)ncnc2n1Cc1ccccc1 [Example G7, 4-(3-((5-(9-benzyl-6-(1-methylcyclopropoxy)-9H-purin-8-yl)-4-methylpyridin-2-yl)oxy)propyl)morpholine]
- IC50 [1]: > 10 µM
- IC50 [2]: 0.398 µM
